Assays:
Plutella xylostella = test: Insecticidal test on Plutella xylostella (dip of Chinese cabbage seedlings with laid eggs); type: in vivo; settings: 144 h, seedlings with eggs dipped about 30 seconds, 25° C., 6 days after dip treatment, criteria of Test Example 2, read-out: insecticidal effect (corrected mortality rate), activity level
Description: Insecticidal test on Plutella xylostella
Adults of Plutella xylostella were released onto Chinese cabbage seedlings and allowed to lay eggs thereon. At 2 days after the release of the adults, the Chinese cabbage seedlings with laid eggs were dipped for about 30 seconds in agrochemical aqueous dispersions diluted to 500 ppm, each of which contained a different kind of benzoxazole compound represented by the general formula (1) of the present invention as an active ingredient. After air-dried, the seedlings were kept in a thermostatic chamber at 25° C. At 6 days after the dip treatment, the number of hatched larvae per plot was counted, the mortality rate was calculated according to the formula shown below, and the insecticidal effect was evaluated according to the criteria of Test Example 2. This test was conducted in triplicate using 10 adults of Plutella xylostella per plot. Corrected mortality rate (%)=100×(Number of hatched larvae in a non-treatment plot−Number of hatched larvae in a treatment plot)/Number of hatched larvae in a non-treatment plot [Math. 3]

Laodelphax striatella = test: Insecticidal test on Laodelphax striatella (rice seedling dip); type: in vivo; settings: Laodelphax striatellus, 192 h, rice seedlings dipped 30 seconds, 3rd-instar larvae, 8 days after inoculation, read-out: corrected mortality rate, activity level
Description: Insecticidal test on Laodelphax striatella
The benzoxazole compounds represented by the general formula (1) of the present invention or salts thereof were separately dispersed in water and diluted to 500 ppm. Rice plant seedlings (variety: Nihonbare) were dipped in the agrochemical dispersions for 30 seconds. After air-dried, each seedling was put into a separate glass test tube and inoculated with ten 3rd-instar larvae of Laodelphax striatella, and then the glass test tubes were capped with cotton plugs. At 8 days after the inoculation, the numbers of surviving larvae and dead larvae were counted, the corrected mortality rate was calculated according to the formula shown below and evaluated according to the criteria shown below. Corrected mortality rate (%)=100×(Survival rate in a non-treatment plot−Survival rate in a treatment plot)/Survival rate in a non-treatment plot [Math. 2] Criteria A: the corrected mortality rate is 100%. B: the corrected mortality rate is 90 to 99%. C: the corrected mortality rate is 80 to 89%. D: the corrected mortality rate is 50 to 79%.

Row | Structure (SMILES) | mortality at 500 ppm (Plutella xylostella) | mortality at 500 ppm (Laodelphax striatella)
1 | CCS(=O)(=O)c1cc(C2CC2)cnc1-c1nc2cc(OC(F)(F)F)ccc2o1 [Compound 1-3, 2-(5-Cyclopropyl-3-ethylsulfonylpyridin-2-yl)-5-(trifluoromethoxy)benzo[d]oxazole] | 100% | 100%
2 | CCS(=O)(=O)c1cc(C2CC2)cnc1-c1nc2cc([S+]([O-])C(F)(F)F)ccc2o1 (stereo not shown) [Compound 1-12, 2-(5-Cyclopropyl-3-ethylsulfonylpyridin-2-yl)-5-(trifluoromethylsulfinyl)benzo[d]oxazole] | 100% | 100%

Reference: patent publication US10575525B2, “Benzoxazole compound or salt thereof, agricultural and horticultural insecticide comprising the compound, and method for using the insecticide” (Nihon Nohyaku Co., Ltd., priority 2016, dated 2020)
